Test results taken from patent US8299125B2, “Water-soluble triterpenephenol compounds having antitumor activity and the preparation thereof” (Shanghai Huatuo Medical Science Co., Ltd., priority 2007, dated 2012).

Columns and labels:
[1] = Stability assay of compound A during the preparation of the injection (HPLC peak area); format: physicochemical; conditions: for peak area: 210 nm
Method: (§1) Experimental conditions: the chromatography column was DIKMA C18 column (5μ, 250×4.6 mm); the detector was Agilent 1100 DAD detector; the detection wavelength was 210 nm; the liquid phase was acetonitrile-0.02M KH2PO4 (which contains 1‰ of tetrabutylammonium hydroxide, and the pH was adjusted to 7.35 with triethylamine) (35:65); the flow speed was 1 ml/min; and sample amount was 20 μl.
Sample: the solutions in each step of the preparation of the injection of compound A in example 6
Experimental data: the peak area of the solution before filtering with micro-pore filter film was 1084.4, the peak area after filtering was 1078.2, and the peak area after the moist heat sterilization was 1072.9.

[2] = Stability assay of compound A at meta-acidic or meta-alkalescence condition (HPLC peak area); format: physicochemical; conditions: 2 hours
Method: as §1, with “mm); The” for “mm); the”, “was Waters 3487” for “was Agilent 1100 DAD”, “1‰” for “1‰ of”, “(35:65); and” for “(35:65);”, “1 ml/min.” for “1 ml/min; and sample amount was 20 μl.”
Experimental method: the compound A was formulated into a solution of about 5 mg/ml with distilled water. 0.1 ml of the solution was added into the following solutions respectively: a) 1 ml of HCl diluted solution with a pH of 2; b) 1 ml of distilled water; c) 1 ml of sodium carbonate diluted solution with a pH of 10. After left standing at room temperature for 2 hours, 0.1 ml of each the above three kinds of solution were added into 1 ml of liquid phase solution, respectively, and 20 μl was sampled and injected into the chromatograph. The peak areas were then determined and calculated.

[3] = test system: human prostate cancer cell PC-3 transplanted into nude mice; assay: Therapeutic activity against human prostate cancer cell PC-3 transplanted into nude mice; format: in vivo, BALB/Ca nude mice; conditions: for TV d24 / T/C (%) / RTV / TV d0: dl/3.5 w, i.p; for TV d24: 24th day; for T/C (%): relative tumor proliferation rate; for RTV: relative tumor volume Vt/V0; for TV d0: tumor volume at start of administration
Method: The therapeutic activity experiment of compound A against human prostate cancer cell PC-3 transplanted into nude mice was conducted by SHANGHAI INSTITUTE OF MATERIA MEDICA, CHINESE ACADEMY OF SCIENCES, under assignment by SHANGHAI HUATUO MEDICAL SCIENCE CO., LTD.
Tested Compound: Compound A.
Positive control medicine: mitomycin (MMC), produced by Kyowa Hakko kogyo Co Ltd. (batch no: 468AEF, 2 mg/bottle), was diluted with physiological saline when used.
Animal and transplanted tumor: BALB/Ca nude mice, female, 45˜50 days old, weight 20±1 g. The transplanted tumor of human prostate cancer cell PC-3 in nude mice was established by inoculating the nude mice with PC-3 cell line subcutaneously.
TV (mm^3) is the tumor volume, and the calculation equation is: TV=½×a×b^2, wherein a and b represent length and width respectively. d0 is the tumor volume measured as medicine is administered in divided cages, and d24 is the tumor volume on the 24th day of the experiment. RTV is the relative tumor volume, and the calculation equation is RTV=Vt/V0, wherein V0 is the tumor volume measured as medicine is administered in divided cages (i.e. d0), Vt is the tumor volume measured every time. The evaluation index of the antitumor activity is the relative tumor proliferation rate T/C (%) and the calculation equation is as follows: T/C(%)=(TRTV/CRTV)×100
TRTV: RTV of the therapeutic group; CRTV: RTV of the negative control group.
Evaluation standard of therapeutic effect: T/C (%)>60% is ineffective, T/C (%)≦60 and with a statistic result of p<0.05 represents effective.

Row | SMILES | stability during the injection preparation [1] | peak area ([1]; after filtering) | peak area ([1]; after the moist heat sterilization (116° C., 30 min)) | peak area ([1]; solution before filtering with micro-pore filter film) | Percentage (based on the peak area in distilled water taken as 100%) ([2]; Distilled water (reference), room temperature) | peak area ([2]; Distilled water, room temperature) | stability at both meta-acidic condition and meta-alkalescence condition ([2]; pH 2 and pH 10, room temperature) | peak area ([2]; pH = 2 (HCl diluted solution), room temperature) | Percentage (based on the peak area in distilled water taken as 100%) ([2]; pH = 2, room temperature) | peak area ([2]; pH = 10 (sodium carbonate diluted solution), room temperature) | Percentage (based on the peak area in distilled water taken as 100%) ([2]; pH = 10, room temperature) | TV d24 ([3]; 3 mg/kg) | T/C (%) ([3]; 3 mg/kg) | RTV ([3]; 3 mg/kg) | TV d0 ([3]; 3 mg/kg) | inhibition of the growth of human prostate cancer cell PC-3 transplanted into nude mice ([3]; mouse, in vivo) | TV d24 ([3]; 5 mg/kg) | T/C (%) ([3]; 5 mg/kg) | RTV ([3]; 5 mg/kg) | TV d0 ([3]; 5 mg/kg)
1 | Cc1c(O)c(O)cc2c1C(S(=O)(=O)[O-])C=C1[C@@]2(C)CC[C@@]2(C)[C@@H]3C[C@](C)(C(=O)O)CC[C@]3(C)CC[C@]12C.[Na+] (some centres unmarked) [Compound A] | good | 1078.2 | 1072.9 | 1084.4 | 100% | 1206926 | good stability | 1247385 | 103.4% | 1232216 | 102.1% | 501 ± 133 mm^3 | 40.2% | 3.8 ± 1.1 | 135 ± 16 mm^3 | marked inhibition effects | – | – | – | –
2 | CO[C@@]12[C@H](COC(N)=O)C3=C(C(=O)C(C)=C(N)C3=O)N1C[C@@H]1N[C@@H]12 [mitomycin, reference compound] | – | – | – | – | – | – | – | – | – | – | – | – | – | – | – | – | 400 ± 224 mm^3 | 33.7% | 3.1 ± 1.8 | 135 ± 42 mm^3
